Laboratory results reported in patent publication US20150337013A1, “NOVEL ANTIBACTERIAL AGENTS FOR THE TREATMENT OF GRAM POSITIVE INFECTIONS” (priority 2008, published 2015).
Where “and” joins values, the source holds several entries; their conditions need not be identical. Equal values may be shown once. Read-outs that look alike come from different tables or passages of the source.

Legend:
gram positive bacteria = assay: Antimicrobial activity against a panel of organisms, summary statements; format: cell-based; conditions: statement in words
Method: (§1) Compounds according to Formula I were tested for antimicrobial activity against a panel of organisms. Aerobic organisms, Staphylococcus aureus, Enterococcus faecalis and E. faecium, were tested by broth microdilution according to Clinical and Laboratory Standards Institute (CLSI) document M7-A7 (Clinical and Laboratory Standards Institute. Methods for Dilution Antimicrobial Susceptibility Tests for Bacteria that Grow Aerobically; Approved Standard—Seventh Edition. CLSI document M7-A7 [ISBN 1-56238-587-9]. Clinical and Laboratory Standards Institute, 940 West Valley Road, Suite 1400, Wayne, Pa. 19087-1898 USA, 2006) with modifications as described below. Mueller Hinton Broth (MHBc) was supplemented with 50 mg/L calcium (equivalent to human physiological levels of calcium) and assay plates were incubated 18-20 hours at 37° C. with aeration (200 rpm).
(§2) In all cases the final concentration of dimethyl sulfoxide incubated with cells is less than or equal to 1%. For minimum inhibitory concentration (MIC) calculations, 2-fold dilutions of compounds were added to wells of a microtiter plate containing 5×10^5 bacteria in a final volume of 100 μL of media. Following incubation, (18-20 hours at 37° C. with aeration at 200 rpm) growth was confirmed visually by placing plates over a viewing apparatus (stand with a mirror underneath) and then the optical density (OD600) was measured using a SpectraMax 340PC^384 plate reader. Growth was defined as turbidity that could be detected with the naked eye or achieving minimum OD600of 0.1. MIC values (in μg/mL) were defined as the lowest concentration producing no visible turbidity.

[1] = tested on: C. difficile spores (ATCC #43596); assay: Hamster C. difficile infection (CDAD) protection model; format: in vivo, Syrian golden hamsters; conditions: oral 0.5 mg/kg once daily for 5 days (MET 70 mg/kg three times daily for 5 days)
Method: Syrian golden hamsters were pretreated with 10 mg/kg clindamycin subcutaneously 24 hours before bacterial challenge. An inoculum of 20 C. difficile spores (ATCC #43596) in sterile saline was administered orally. Treatment was initiated 4 hours post-inoculation with dH2O, metronidazole (MET), vancomycin (VAN), or a compound of the present invention. Oral dosing regimens for VAN and compounds of Formula I were 0.5 mg/kg once daily for 5 days. MET was administered at 70 mg/kg three times daily for 5 days. CDAD was confirmed as the cause of death by observations at necropsy, including wet tail and/or macroscopic cecal alterations. The % protection provided by each therapy tested was calculated at 1 and 21 days post-dosing.

[2] = tested on: daptomycin resistant Staph. aureus (DRSA), daptomycin resistant E. faecium (DREfm) and daptomycin resistance E. faecalis (DREfs); assay: Activity against daptomycin resistant bacteria, summary statement; format: cell-based; conditions: statement in words
Method: as §1, §2

[3] = tested on: Enterococcus faecium EFM.14 (ATCC 6569); format: cell-based
Summary of the method: (§3)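 Broth microdilution per CLSI M7-A7 in Mueller Hinton broth supplemented with 50 mg/L calcium; 2-fold compound dilutions, 5×10^5 bacteria per well, DMSO ≤1% final, 18-20 h at 37° C with aeration (200 rpm). MIC (μg/mL) = lowest concentration with no visible turbidity (growth: visible turbidity or OD600 ≥0.1).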

[4] = tested on: Enterococcus faecalis EFS.201 (ATCC 49452); format: cell-based
Summary of the method: as §3

[5] = tested on: Staphylococcus aureus SAU.278, Daptomycin resistant mutant (D10); format: cell-based; conditions: MHBc with 50 mg/L calcium, 18-20 hours at 37° C.
Summary of the method: as §3

[6] = tested on: Enterococcus faecalis EFS.312, Daptomycin resistant mutant (EFA); format: cell-based; conditions: MHBc with 50 mg/L calcium, 18-20 hours at 37° C.
Summary of the method: as §3

[7] = tested on: Enterococcus faecium EFM.384, Daptomycin resistant mutant (14-A); format: cell-based; conditions: MHBc with 50 mg/L calcium, 18-20 hours at 37° C.
Summary of the method: as §3

[8] = tested on: Staphylococcus aureus SAU.42 (ATCC 29213); format: cell-based
Summary of the method: as §3

[9] = tested on: Staphylococcus aureus SAU.399 (ATCC 43300), Methicillin and Oxacillin Resistant; format: cell-based
Summary of the method: as §3

[10] = MHBc with 50 mg/L calcium, 18-20 hours at 37° C.

CCCCCCC1CCC(c2ccc(C(=O)N[C@@H](Cc3c[nH]c4ccccc34)C(=O)N[C@H](CC(N)=O)C(=O)N[C@@H](CC(=O)O)C(=O)N[C@@H]3C(=O)NCC(=O)N[C@@H](CCCN)C(=O)N[C@@H](CC(=O)O)C(=O)N[C@H](C)C(=O)N[C@@H](CC(=O)O)C(=O)NCC(=O)N[C@H](CO)C(=O)N[C@@H]([C@H](C)CC(=O)O)C(=O)N[C@@H](CC(=O)c4ccccc4N)C(=O)O[C@@H]3C)cc2)CC1 (stereo partly drawn) [Compound 54, N-[4-(−4-hexylcyclohexyl)benzoyl]-L-tryptophyl-D-asparaginyl-L-α-aspartyl-L-threonylglycyl-L-ornithyl-L-α-aspartyl-D-alanyl-L-α-aspartylglycyl-D-seryl-(3R)-3-methyl-L-α-glutamyl-(αS)-α,2-diamino-γ-oxobenzenebutanoic acid (13→4)-lactone]
as active or more active than daptomycin (gram positive bacteria): as active or more active than daptomycin
more active against bacteria than daptomycin (gram positive bacteria): more effective than daptomycin
Mean % Protection 1 Day Post Dosing [1]: 0%
Mean % Protection 21 Days Post Dosing [1]: 0%
useful against daptomycin resistant strains of bacteria [2]: useful against daptomycin resistant strains of bacteria

CCCCc1ccc(/C(C)=C/C(=O)N[C@@H](Cc2c[nH]c3ccccc23)C(=O)N[C@H](CC(N)=O)C(=O)N[C@@H](CC(=O)O)C(=O)N[C@@H]2C(=O)NCC(=O)N[C@@H](CCCN)C(=O)N[C@@H](CC(=O)O)C(=O)N[C@H](C)C(=O)N[C@@H](CC(=O)O)C(=O)NCC(=O)N[C@H](CO)C(=O)N[C@@H]([C@H](C)CC(=O)O)C(=O)N[C@@H](CC(=O)c3ccccc3N)C(=O)O[C@@H]2C)cc1 [Compound 48, N-{1-[(E)-3-(4-butylphenyl)but-2-enoyl]}-L-tryptophyl-D-asparaginyl-L-α-aspartyl-L-threonylglycyl-L-ornithyl-L-α-aspartyl-D-alanyl-L-α-aspartylglycyl-D-seryl-(3R)-3-methyl-L-α-glutamyl-(αS)-α,2-diamino-γ-oxobenzenebutanoic acid (13→4)-lactone]
as active or more active than daptomycin (gram positive bacteria): as active or more active than daptomycin
C. diff MIC90 (Clostridium difficile): 2 µg/mL
Efm14 MIC ([3]; ATCC 6569): 2 µg/mL
Efs201 MIC ([4]; ATCC 49452): 1 µg/mL
Sa278 MIC [5]: 2 µg/mL and 4 µg/mL
Efs312 MIC [6]: >32 µg/mL and 32 µg/mL
Efm384 MIC [7]: 32 µg/mL
useful against daptomycin resistant strains of bacteria [2]: useful against daptomycin resistant strains of bacteria

CCCCCCCCCCOc1ccc(C(=O)N[C@@H](Cc2c[nH]c3ccccc23)C(=O)N[C@H](CC(N)=O)C(=O)N[C@@H](CC(=O)O)C(=O)N[C@@H]2C(=O)NCC(=O)N[C@@H](CCCN)C(=O)N[C@@H](CC(=O)O)C(=O)N[C@H](C)C(=O)N[C@@H](CC(=O)O)C(=O)NCC(=O)N[C@H](CO)C(=O)N[C@@H]([C@H](C)CC(=O)O)C(=O)N[C@@H](CC(=O)c3ccccc3N)C(=O)O[C@@H]2C)cc1 [Compound 38]
as active or more active than daptomycin (gram positive bacteria): as active or more active than daptomycin
more active against bacteria than daptomycin (gram positive bacteria): more effective than daptomycin
C. diff MIC90 (Clostridium difficile): 1 µg/mL
Efm14 MIC [3, 10]: 0.5 µg/mL
Sa42 MIC [8, 10]: 0.25 µg/mL
Efs201 MIC [4, 10]: 0.5 µg/mL
Sa399 MIC [9, 10]: 0.5 µg/mL
Sa278 MIC [5]: 0.50 µg/mL
Efs312 MIC [6]: 0.5 µg/mL
Efm384 MIC [7]: 1 µg/mL
useful against daptomycin resistant strains of bacteria [2]: useful against daptomycin resistant strains of bacteria

CCCCCCc1ccc(/C(C)=C/C(=O)N[C@@H](Cc2c[nH]c3ccccc23)C(=O)N[C@H](CC(N)=O)C(=O)N[C@@H](CC(=O)O)C(=O)N[C@@H]2C(=O)NCC(=O)N[C@@H](CCCN)C(=O)N[C@@H](CC(=O)O)C(=O)N[C@H](C)C(=O)N[C@@H](CC(=O)O)C(=O)NCC(=O)N[C@H](CO)C(=O)N[C@@H]([C@H](C)CC(=O)O)C(=O)N[C@@H](CC(=O)c3ccccc3N)C(=O)O[C@@H]2C)cc1 [Compound 50, N-{1-[(E)-3-(4-hexylphenyl)but-2-enoyl]}-L-tryptophyl-D-asparaginyl-L-α-aspartyl-L-threonylglycyl-L-ornithyl-L-α-aspartyl-D-alanyl-L-α-aspartylglycyl-D-seryl-(3R)-3-methyl-L-α-glutamyl-(αS)-α,2-diamino-γ-oxobenzenebutanoic acid (13→4)-lactone]
as active or more active than daptomycin (gram positive bacteria): as active or more active than daptomycin
more active against bacteria than daptomycin (gram positive bacteria): more effective than daptomycin
C. diff MIC90 (Clostridium difficile): 0.5 µg/mL
Efm14 MIC ([3]; ATCC 6569): 1 µg/mL
Efs201 MIC ([4]; ATCC 49452): 0.25 µg/mL
Sa399 MIC ([9]; ATCC 43300): 0.5 µg/mL
Sa278 MIC [5]: 1 µg/mL
Efs312 MIC [6]: 4 µg/mL
Efm384 MIC [7]: 4 µg/mL
useful against daptomycin resistant strains of bacteria [2]: useful against daptomycin resistant strains of bacteria

CCCCCC1CCC(C(=O)N[C@@H](Cc2c[nH]c3ccccc23)C(=O)N[C@H](CC(N)=O)C(=O)N[C@@H](CC(=O)O)C(=O)N[C@@H]2C(=O)NCC(=O)N[C@@H](CCCN)C(=O)N[C@@H](CC(=O)O)C(=O)N[C@H](C)C(=O)N[C@@H](CC(=O)O)C(=O)NCC(=O)N[C@H](CO)C(=O)N[C@@H]([C@H](C)CC(=O)O)C(=O)N[C@@H](CC(=O)c3ccccc3N)C(=O)O[C@@H]2C)CC1 (stereo partly drawn) [Compound 16]
as active or more active than daptomycin (gram positive bacteria): as active or more active than daptomycin
Mean % Protection 1 Day Post Dosing [1]: 100%
Mean % Protection 21 Days Post Dosing [1]: 85%
Sa42 MIC ([8]; ATCC 29213): 0.5 µg/mL
Sa278 MIC [5]: 8 µg/mL
Efs312 MIC [6]: 16 µg/mL and >32 µg/mL
Efm384 MIC [7]: 32 µg/mL and 16 µg/mL

CCCCCOc1ccc(-c2ccc(C(=O)N[C@@H](Cc3c[nH]c4ccccc34)C(=O)N[C@H](CC(N)=O)C(=O)N[C@@H](CC(=O)O)C(=O)N[C@@H]3C(=O)NCC(=O)N[C@@H](CCCN)C(=O)N[C@@H](CC(=O)O)C(=O)N[C@H](C)C(=O)N[C@@H](CC(=O)O)C(=O)NCC(=O)N[C@H](CO)C(=O)N[C@@H]([C@H](C)CC(=O)O)C(=O)N[C@@H](CC(=O)c4ccccc4N)C(=O)O[C@@H]3C)cc2)cc1 [Compound 61, N-[4′-(pentyloxy)biphenyl-4-carbonyl]-L-tryptophyl-D-asparaginyl-L-α-aspartyl-L-threonylglycyl-L-ornithyl-L-α-aspartyl-D-alanyl-L-α-aspartylglycyl-D-seryl-(3R)-3-methyl-L-α-glutamyl-(αS)-α,2-diamino-γ-oxobenzenebutanoic acid (13→4)-lactone]
as active or more active than daptomycin (gram positive bacteria): as active or more active than daptomycin
more active against bacteria than daptomycin (gram positive bacteria): more effective than daptomycin
C. diff MIC90 (Clostridium difficile): 2 µg/mL
Efm14 MIC ([3]; ATCC 6569): 0.5 µg/mL
Efs312 MIC [6]: 4 µg/mL
Efm384 MIC [7]: 2 µg/mL and 1 µg/mL
useful against daptomycin resistant strains of bacteria [2]: useful against daptomycin resistant strains of bacteria
